Molecules are shown by their SMILES.

Assay [1] has as its target T1, CRTH2 (Homo sapiens, UniProt Q9Y5Y4).
T1 sequence (Q9Y5Y4 1-395): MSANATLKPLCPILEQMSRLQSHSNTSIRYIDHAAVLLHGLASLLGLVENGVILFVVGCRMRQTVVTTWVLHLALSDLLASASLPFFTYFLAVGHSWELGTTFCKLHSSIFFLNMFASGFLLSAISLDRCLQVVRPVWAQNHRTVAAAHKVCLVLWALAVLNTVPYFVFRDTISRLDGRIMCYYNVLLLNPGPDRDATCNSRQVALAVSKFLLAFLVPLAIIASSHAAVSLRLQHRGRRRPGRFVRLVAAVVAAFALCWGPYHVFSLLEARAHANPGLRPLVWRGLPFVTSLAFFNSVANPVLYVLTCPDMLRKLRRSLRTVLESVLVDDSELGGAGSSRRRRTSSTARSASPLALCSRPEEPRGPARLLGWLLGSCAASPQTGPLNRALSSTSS
The experiment in a line: Radioligand binding Scintillation Proximity Assay ([3H]PGD2, hCRTH2-CHO cell membranes). The note with it: 1.5 nM [3H]PGD2, hCRTH2-CHO cell membranes, SPA. Also noted: host or cells: CHO cells. The gist of the method: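 SPA competition binding at room temperature, 90 min with agitation: 1.5 nM [3H]PGD2, 10-50 μg/ml hCRTH2-CHO membrane protein, WGA SPA beads, HEPES pH 7.4 with 10 mM MnCl2, 1% DMSO. Non-specific binding defined with 10 μM PGD2; scintillation counting.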
A general note: In a scintillation proximity assay essentially only radioactivity close to the scintillant gives light.

In assay [2] the target is T1, CRTH2. The assay is described as follows: Cellular Dielectric Spectroscopy (CHO-CRTH2 cells). In kind it is cell-based. Also noted: expressed in transfected cells; host or cells: CHO-CRTH2 cells. To be noted: antagonist mode, fixed concentration of PGD2 (EC80). The gist of the method:
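Label-free cellular dielectric spectroscopy measured impedance changes (dZ) in CHO-CRTH2 cells. The cells were grown in HAM's F12 with 10% foetal calf serum and 400 μg/ml Geneticin, plated at 100000 cells/well in 96W electrode microplates, and kept 24 hours at 37° C. in 5% CO2. They were then washed twice with 135 μl of HBSS/10 mM HEPES pH 7.4/1% DMSO buffer. Signal was the max-min amplitude, with basal and maximum activity defined without and with PGD2 (EC80).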

The test system of assay [3] is eosinophils in human whole blood. The experiment in a line: PGD2-induced eosinophil cell shape assay in human whole blood. Type of assay: cell-based. To be noted: 10 nM PGD2 final, flow cytometry. As for the experimental part:
The Compounds of Formula (I) were diluted in dimethylsulphoxide so that the total volume of dimethylsulfoxide was kept constant at 2% dimethylsulphoxide (Me2SO). Serial dilutions of 200 μM to 0.09 μM were prepared. Samples of 90 μl of human blood from healthy volunteers (Centre de Transfusion Sanguine de Genève) were pre-incubated in polypropylene Falcon tubes (BD 352063) for 20 minutes in a water bath at 37° C. with 10 μl of diluted compounds. For CRTH2 activation, 100 μl PGD2 (Cayman 12010) at 20 nM was added (10 nM final) to each tube and cells were maintained at 37° C. For negative control cells were treated with PBS. After 10 minutes, cell activation was stopped with 120 μl Formaldehyde 10% (4% final, Fluka 41650) and cells were rested for 10 minutes at room temperature. Fixed cells were transferred into polypropylene tubes and then treated for 1 hour in a water bath at 37° C. with 2 ml of Triton-Surfact-Amps X-100 (Pierce 28314) at 0.166% (0.13% Triton final). After several washes with PBS (red cells lysed progressively during washes, two washes are necessary), cells were analyzed by flow cytometry on a FACSCalibur. In one embodiment, the compounds of Formula (I) of the present invention are capable of blocking the cell shape change of eosinophils induced by PGD2 in Whole Blood.
(In flow cytometry, cells or beads pass a laser one at a time.)

On to `O=C(O)COc1ccc(Cl)cc1C#Cc1ccc2c(c1)S(=O)(=O)c1ccccc1-2` [Example 154, {4-chloro-2-[(5,5-dioxidodibenzo[b,d]thien-3-yl)ethynyl]phenoxy}acetic acid], for which the IC50 on CRTH2 [1] is 14 nM.

Consider `CN(C)S(=O)(=O)c1ccc(F)c(C#Cc2cc(Cl)ccc2OCC(=O)O)c1` [Example 107, [4-chloro-2-({5-[(dimethylamino)sulfonyl]-2-fluorophenyl}ethynyl)phenoxy]acetic acid], for which the IC50 at CRTH2 [1] worked out at 4 nM; on CRTH2 [2], 23 nM; in assay [3], 23 nM.

With `CC(C)S(=O)(=O)c1ccc(F)c(C#Cc2cc(Cl)ccc2OCC(=O)O)c1` [Example 102, (4-chloro-2-{[2-fluoro-5-(isopropylsulfonyl)phenyl]ethynyl}phenoxy)acetic acid], the results for the IC50 (on CRTH2 [1]; against CRTH2 [2]; in assay [3]) were 5 nM, 16 nM and 91 nM, respectively.

On to `CCCS(=O)(=O)c1ccc(C)c(C#Cc2cc(Cl)ccc2OCC(=O)O)c1` [Example 38, (4-chloro-2-{[2-methyl-5-(propylsulfonyl)phenyl]ethynyl}phenoxy)acetic acid], for which the IC50 was found to be 5 nM on CRTH2 [1], 32 nM at CRTH2 [2] and 81 nM in assay [3].

As for `CCCS(=O)(=O)c1cccc(C#Cc2cc(Cl)ccc2OCC(=O)O)c1` [Example 17, (4-chloro-2-{[3-(propylsulfonyl)phenyl]ethynyl}phenoxy)acetic acid], the results for the IC50 (on CRTH2 [1]; against CRTH2 [2]; in assay [3]) were 10 nM, 22 nM and 150 nM, respectively.

`CCCS(=O)(=O)c1ccc(Cl)c(C#Cc2cc(Cl)ccc2OCC(=O)O)c1` [Example 101, (4-chloro-2-{[2-chloro-5-(propylsulfonyl)phenyl]ethynyl}phenoxy)acetic acid]: the values for the IC50 (at CRTH2 [1]; against CRTH2 [2]; in assay [3]) were 3 nM, 38 nM and 23 nM, respectively.

Take `CCCS(=O)(=O)c1ccc(F)c(C#Cc2cc(Cl)ccc2OCC(=O)O)c1` [Example 89, (4-chloro-2-{[2-fluoro-5-(propylsulfonyl)phenyl]ethynyl}phenoxy)acetic acid]: the IC50 at CRTH2 [1] came out at 6 nM; against CRTH2 [2] it was 29 nM; in assay [3] it was 23 nM.

On to `CC(C)S(=O)(=O)c1ccc(Cl)c(C#Cc2cc(Cl)ccc2OCC(=O)O)c1` [Example 103, (4-chloro-2-{[2-chloro-5-(isopropylsulfonyl)phenyl]ethynyl}phenoxy)acetic acid], for which the IC50 came to 4 nM on CRTH2 [1], 44 nM at CRTH2 [2] and 67 nM in assay [3].

For `CN(C)S(=O)(=O)c1cncc(C#Cc2cc(Cl)ccc2OCC(=O)O)c1` [Example 35, [4-chloro-2-({5-[(dimethylamino)sulfonyl]pyridin-3-yl}ethynyl)phenoxy]acetic acid], the figures for the IC50 (on CRTH2 [1]; against CRTH2 [2]; in assay [3]) were 55 nM, 23 nM and 289 nM, respectively.

The term IC50 denotes the point on the concentration scale where inhibition reaches its midpoint.

Source of the values: patent publication US8273769B2, “Phenoxy acetic acid derivatives” (Merck Serono SA, priority 2009, dated 2012).
